# Several values for one entry are separate records, joined by “and”; a condition that tells them apart may be missing. Identical values can stand only once. Entries after “also recorded” stand apart in the source; their conditions may differ.
# Assays:
# maize [1] = details: in vivo
# maize [2] = details: in vivo; remark: listed apart in the source
structure (smiles),measurement,setting,value
"CCCCC/C=C\C/C=C\CCCCCCCC(=O)O [LLA, linoleic acid]",decrease in embryo abortion frequency compared to control buffer,maize [1],2.9%
same,effect on embryo abortion and kernel formation in haploid inducer crosses (in words),maize [1],reduces the rate of embryo abortion and increases the rate of kernel formation; also recorded: increase the rate of viable kernel formation by reducing fertilization failure and embryo abortion
same,effect on haploid induction rate / number of haploids in haploid inducer crosses (in words),maize [1],boosted the haploid induction rate; also recorded: increase the number of haploids formed and/or the rate of haploid formation
same,increase in haploid induction rate compared to control buffer,maize [1],1.5%
same,increase in haploids recovered per ear compared to control buffer,maize [1],7.6 haploids per ear
same,increase in number of kernels per ear compared to control buffer,maize [1],41 per ear
same,de novo haploid induction (in words),maize [2],triggered de novo haploid induction
"CCCCCCCCCCCCCCCCCC(=O)OC[C@H](COP(=O)([O-])OCC[N+](C)(C)C)OC(=O)CCCCCCCCCCCCCCCCC [DSPC, 1,2-distearoyl-sn-glycero-3-phosphatidyl choline]",de novo haploid formation (in words),maize [2],achieved de novo haploid formation
same,de novo haploid induction (in words),maize [2],triggered de novo haploid induction; also recorded: highly active
CCCCC/C=C\C/C=C\C/C=C\C/C=C\CCCC(=O)O [arachidonic acid],de novo haploid induction (in words),maize [2],triggered
"CCCCC/C=C\C/C=C\C/C=C\C/C=C\CCCC(=O)OC [AAME, arachidonic acid methyl ester]",de novo haploid induction (in words),maize [2],triggered de novo haploid induction
"CCCCCCCCCCCCCCCC(=O)OCC [PAEE, palmitic acid ethyl ester]",de novo haploid induction (in words),maize [2],induces haploids
"CCCCCCCC/C=C\CCCCCCCC(=O)OCC [OAEE, oleic acid ethyl ester]",de novo haploid induction (in words),maize [2],triggered de novo haploid induction
"CCCCC/C=C\C/C=C\CCCCCCCC(=O)OCC [LLAEE, linoleic acid ethyl ester]",AVERAGE/EAR HIR,maize [1],13.0% and 15.4%
same,AVERAGE/EAR haploids,maize [1],23.1 and 27.9
same,AVERAGE/EAR k. a. rate,maize [1],29.9% and 33.0%
same,"AVERAGE/EAR k. a. rate, vs control",maize [1],−3.7% and −2.9%
same,AVERAGE/EAR kernels,maize [1],194.1 and 194.6
same,"AVERAGE/EAR kernels, vs control",maize [1],+43.3
same,decrease in embryo abortion frequency compared to control buffer,maize [1],3.7%
same,effect on embryo abortion and kernel formation in haploid inducer crosses (in words),maize [1],reduces the rate of embryo abortion and increases the rate of kernel formation; also recorded: increase the rate of viable kernel formation by reducing fertilization failure and embryo abortion
same,effect on haploid induction rate / number of haploids in haploid inducer crosses (in words),maize [1],boosted the haploid induction rate; also recorded: increase the number of haploids formed and/or the rate of haploid formation
same,increase in haploid induction rate compared to control buffer,maize [1],2.4%
same,increase in haploids recovered per ear compared to control buffer,maize [1],over 8 haploids per ear
same,increase in number of kernels per ear compared to control buffer,maize [1],over 43 per ear
"CC1=C(CC/C(C)=C/CCC2=CC[C@H](C3=CC(=O)O[C@H]3O)O[C@H]2O)C(C)(C)CCC1 [manoalide, reference compound]",de novo haploid induction (in words),maize [2],triggered de novo haploid induction; also recorded: able to induce haploid formation de novo
CCCCCCCC/C=C\CCCCCCCC(=O)O[C@H](COC(=O)CCCCCCCCCCCCCCCCC)COP(=O)(O)OCCN [1-stearyl-2-oleoyl-sn-phosphatidylethanolamine],de novo haploid induction (in words),maize [2],haploid inducing compound

# — US20180332790A1 (priority 2015, published 2018)
